Results taken from patent US8431554B2, “Compound showing anti-inflammatory activity and antiviral activity, pharmaceutical compositions comprising the same, a process for obtaining the same and use of the same in the treatment of epidemic keratoconjunctivites and herpetic stromal keratis” (priority 2007, dated 2013).

Experiments:
strain KOS of HSV-1 = assay: Anti-HSV-1 activity, virus yield in infected IOBA-NHC cells titrated in Vero cells; type: cell-based; conditions: for EC50: Human alphaherpesvirus 1, Vero, HSV-1 KOS, m.i. 0.2, IOBA-NHC cells, 24 h, read-out: CE50 (Effective concentration 50); for IS, Selectivity index (CC50/CE50): anti-HSV-1, IOBA-NHC cells
Description: To evaluate the antiviral activity of the compounds I and II, monolayers of cells IOBA-NHC grown in microplates of 24 wells were infected with the strain KOS of HSV-1 at a multiplicity of infection (m.i.) of 0.2, and treated with different concentrations of the compounds. Infected cells not treated were used as control of the infection. After incubating at 37° C. during 24 h, the free and cell associated virus was harvested and titrated in Vero cells by plating in semisolid medium. It was observed an inhibition of dose-dependent viral replication in the cells treated with the compounds I and II (Table 1).

[1] = tested on: alpha-TNF production in macrophages J774; assay: Inhibition of alpha-TNF production in LPS-treated J774 macrophages; type: cell-based; conditions: different concentrations
Source text: Also, compound I has anti-inflammatory activity.
Also, said compound II has anti-inflammatory activity.

[2] = Cytotoxicity, colorimetric MTT assay in IOBA-NHC cells; type: cell-based; conditions: human, IOBA-NHC human conjunctival cells, confluent monolayers, 24 hours at 37° C., read-out: CC50 (Cytotoxyc concentration 50)
Description: The activity anti-HSV-1 of the compounds I and II was evaluated in human conjunctive cells (IOBA-NHC). First, it was determined cytotoxicity of the same for cells IOBA-NHC using the colorimetric assay with MTT, based on the cleavage of the tetrazolium salt MTT (3-(4,5-dimethylthiazol-2-yl)-2,5-diphenyl tetrazolium […]) by the mitochondrial enzyme succinate dehydrogenase, to obtain a blue product, formazan (Denizot F, Lang R. Rapid colorimetric assay for cell growth and survival. Journal of Immunological Methods 1986; 89:271-77). The compounds dissolved in ethanol are added to confluent monolayers of cells IOBA-NHC grown in microplates of 96 wells, in concentrations of up to 600 μM, according to the compound. The ethanol concentration was lower than 1%. After 24 hours of incubation at 37° C., the absorbency of each well was read at 570 nm, with a reference wave length of 630 nm. It was determined the 50% cytotoxyc concentration (CC50) as the concentration of compound that reduces absorbency to 50% in relation with the control not treated (Table 1).

adenovirus (ADV-5) = assay: Antiviral activity against adenovirus in infected IOBA-NHC cultures; type: cell-based; conditions: ADV-5, IOBA-NHC; for viral activity (used for selectivity index): multiplicity of infection of 1; for inhibition of adenovirus replication, in words: multiplicity of infection of 1, different concentrations
[3] = Cytotoxicity used for the adenovirus selectivity index; type: cell-based; conditions: human; IOBA-NHC
Description: The antiviral selectivity index of Compound I for adenovirus is of 31.6. Said index was determined as a quotient between its viral activity (=63.2) and its cytotoxicity (=2).
The antiviral selectivity index of Compound II for adenovirus is of […] Said index was determined as a quotient between its viral activity (=62.6) and its cytotoxicity (=4).

[4] = tested on: strain KOS of HSV-1 (herpetic stromal keratitis); assay: Murine model of herpetic stromal keratitis (HK) induced by HSV-1; type: in vivo, mice; conditions: treated days 6, 7, 8 p.i.; read on day 10 p.i.; FIG. 2A
mice = assay: Toxicity assay in vivo; conditions: 40 μM, three times a day, three consecutive days
Description: A toxicity assay in vivo was performed.

[5] = tested on: strain KOS of HSV-1 (herpetic stromal keratitis); assay: Murine model of herpetic stromal keratitis (HK) induced by HSV-1; type: in vivo, mice; conditions: for incidence of HK upon completion of the period of disease / severity of lesions versus non-treated infected mice / incidence of HK (mice with signs of keratitis): treated days 1, 2, 3 p.i.; for incidence of HK upon completion of the period of disease / incidence of HK (mice with signs of keratitis): FIG. 1A; for severity of lesions versus non-treated infected mice: FIG. 1B
Description: To determine if the treatment with compound I, after viral inoculation, affected the signs of HK, male mice of 6-8 weeks were anesthetized with ketamine/xylazine intraperitoneally and infected with the strain KOS of HSV-1 in the right corneas, previously scrapped with a needle. One group of animals was treated with buffered saline solution (PBS) (control of disease), while the rest were treated topically with a concentration of 40 μM of compound I three times a day. Also, groups of animals to control the antiviral activity of aciclovir (ACV) and anti-inflammatory activity of dexamethasone (DEX) were included, both drugs were commercially available.
It was determined the incidence of the disease as well as the degree of severity of the lesions and evolution of HK was determined under a magnifying glass during 15 days. The diagnosis of the disease is based on the density of inflammatory infiltrates, lengthening of vessels with corneal invasion (neovascularization), and the presence of surface ulcers. Therefore, mice presenting swollen eyelids (blepharitis), neovascularization in more than 10% of the corneal surface, and corneal opacity with or without signs of necrosis, were considered sick of HK.
The signs of ocular signs are gradually developed from the days 6-7 post-infection (p.i.) and the percentage of animals with HK and severity of the signs of the disease on days 3, 8, and 15 p.i were recorded (FIG. 1 y 2).
To evaluate the antiviral activity of compound I, the compound was applied to a group of animals on days 1, 2 y 3 p.i., the days when multiplication of HSV-1 in the cornea occurs. Also, other groups of mice were treated with ACV—as a positive control of antiviral activity—and with DEX.
To evaluate the anti-inflammatory activity of compound I, the compound was applied on days 6, 7 and 8 p.i., the time when HK manifests.

[6] = treated days 6, 7, 8 p.i., FIG. 2A

SMILES	EC50 (strain KOS of HSV-1)	IS, Selectivity index (CC50/CE50) (strain KOS of HSV-1)	inhibition of alpha-TNF production, in words [1]	CC50 at 24 h [2]	antiviral selectivity index for adenovirus (adenovirus (ADV-5))	viral activity (used for selectivity index) (adenovirus (ADV-5))	inhibition of adenovirus replication, in words (adenovirus (ADV-5))	cytotoxicity [3]	mice with signs of the disease (HK) [4]	toxic effects in vivo (mice)	incidence of HK upon completion of the period of disease [5]	severity of lesions versus non-treated infected mice [5]	incidence of HK (mice with signs of keratitis) ([5]; read on day 8 p.i.)	HK signs, in words [5, 6]	severity of the signs of keratitis versus infection control ([5]; treated days 6, 7, 8 p.i., FIG. 2B)	mice with signs of the disease (HK) ([5]; treated days 6, 7, 8 p.i., read on day 8 p.i., FIG. 2A)
CC[C@@H](C(C)C)[C@H](O)[C@@H](O)[C@@H](C)[C@H]1CC[C@H]2[C@@H]3CCC4=CC(=O)C=C[C@]4(C)[C@H]3CC[C@]12C [Compound II, (22S,23S)-22,23-dihydroxystigmasta-1,4-dien-3-one]	17.9 µM	3.9	inhibits production of alpha-TNF	70.8 µM	15.67	62.6	inhibits virus replication according to the concentration of compound used	4	–	–	–	–	–	–	–	–
CC[C@@H](C(C)C)[C@H](O)[C@@H](O)[C@@H](C)[C@H]1CC[C@H]2[C@@H]3CCC4=CC(=O)CC[C@]4(C)[C@H]3CC[C@]12C [Compound I, (22S,23S)-22,23-dihydroxystigmast-4-en-3-one]	5.4 µM	13.2	inhibits production of alpha-TNF	71.2 µM	31.6	63.2	inhibits virus replication according to the concentration of compound used	2	40%	absence of toxic effects	40%	significant differences	30%	reduced significantly	lower	30%
Nc1nc2c(ncn2COCCO)c(=O)[nH]1 [ACV, aciclovir, reference compound]	–	–	–	–	–	–	–	–	–	–	30%	significant differences	10%	had no effect on the improvement of disease signs	–	–
